Source: patent US20250346602A1, “LACTAM SUBSTITUTED IMIDAZOPYRIDAZINE IL-17A MODULATORS AND USES THEREOF” (DICE ALPHA, INC., priority 2022, published 2025)

Target: T1, IL-17A/A (Homo sapiens, UniProt Q16552)
T1 construct: purchased Genscript Z03228
T1 sequence (Q16552 24-155): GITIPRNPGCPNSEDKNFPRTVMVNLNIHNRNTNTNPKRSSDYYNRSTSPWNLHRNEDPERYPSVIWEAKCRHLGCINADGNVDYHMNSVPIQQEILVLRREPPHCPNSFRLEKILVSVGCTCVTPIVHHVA
Assay: IL-17A/A HEK-Blue cell assay
Format: cell-based
Conditions: HEK-Blue IL-17A reporter cell line (HEK 293), IL-17A/A stimulation, 20 hours incubation, SEAP read at A630
In short: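 HEK293 reporter cells expressing IL-17RA, IL-17RC and Act1 were given titrated compound (top final 10, 1 or 0.3 uM; 0.1% DMSO) right before IL-17A/A and incubated 20 hours. NFκB-driven SEAP in the media was read at A630 with Quanti-Blue, and IC50 came from a 4-parameter nonlinear fit.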

SMILES | IC50 [nM]
CCn1nccc1C(=O)N[C@H](c1cn2nc(CC3C[C@@H](C(F)(F)F)CNC3=O)c(OC(C)C)cc2n1)C1CCC(F)(F)CC1 (stereo partly drawn) [Compound 185, N-((1S)-(4,4-difluorocyclohexyl)(7-isopropoxy-6-(((5R)-2-oxo-5-(trifluoromethyl)piperidin-3-yl)methyl)imidazo[1,2-b]pyridazin-2-yl)methyl)-1-ethyl-1H-pyrazole-5-carboxamide] | < 100
CCn1nccc1C(=O)N[C@H](c1cn2ncc(CC3C[C@H](C(F)(F)F)CNC3=O)cc2n1)C(C1CC1)C1CC1 (single isomer, unassigned) [Compound 209] | > 1000
CC[C@@H](c1ccc(F)cc1)[C@H](NC(=O)c1ccnn1CC)c1cn2ncc(CC3C[C@@H](C(F)(F)F)NC3=O)cc2n1 (single isomer, unassigned) [Compound 218] | < 100
CC(C)n1nccc1C(=O)N[C@H](c1cn2nc(CC3C[C@@H](C(F)(F)F)CNC3=O)ccc2n1)C1CCC(F)(F)CC1 (stereo partly drawn) [Compound 111, N-((1S)-(4,4-difluorocyclohexyl)(6-(((5R)-2-oxo-5-(trifluoromethyl)piperidin-3-yl)methyl)imidazo[1,2-b]pyridazin-2-yl)methyl)-1-isopropyl-1H-pyrazole-5-carboxamide] | < 100
CCn1nccc1C(=O)N[C@H](c1cn2nc(CC3C[C@H](C(F)(F)F)CNC3=O)ccc2n1)C1CCC(F)(F)CC1 (stereo partly drawn) [Compound 152, N-((1S)-(4,4-difluorocyclohexyl)(6-(((5S)-2-oxo-5-(trifluoromethyl)piperidin-3-yl)methyl)imidazo[1,2-b]pyridazin-2-yl)methyl)-1-ethyl-1H-pyrazole-5-carboxamide] | 100 to 1000
CCn1nccc1C(=O)N[C@H](c1cn2nc(CC3CCC(C(F)(F)F)NC3=O)ccc2n1)C(C1CC1)C1CC1 (single isomer, unassigned) [Compound 43] | > 1000
CCn1nccc1C(=O)N[C@H](c1cn2nc(CC3CC(C(F)F)CNC3=O)ccc2n1)C(C1CC1)C1CC1 (mixture of isomers) [Compound 41, N-((1S)-2,2-dicyclopropyl-1-(6-((5-(difluoromethyl)-2-oxopiperidin-3-yl)methyl)imidazo[1,2-b]pyridazin-2-yl)ethyl)-1-ethyl-1H-pyrazole-5-carboxamide] | > 1000
O=C(N[C@H](c1cn2nc(CC3C[C@@H](C(F)(F)F)CNC3=O)ccc2n1)C1CCC(F)(F)CC1)c1conc1C1CC1 (stereo partly drawn) [Compound 136, 3-cyclopropyl-N-((1S)-(4,4-difluorocyclohexyl)(6-(((5R)-2-oxo-5-(trifluoromethyl)piperidin-3-yl)methyl)imidazo[1,2-b]pyridazin-2-yl)methyl)isoxazole-4-carboxamide] | 100 to 1000
CCc1nonc1C(=O)N[C@H](c1cn2nc(C[C@H]3CCCNC3=O)ccc2n1)C(C1CC1)C1CC1 [Compound 35, N—((S)-2,2-dicyclopropyl-1-(6-(((R)-2-oxopiperidin-3-yl)methyl)imidazo[1,2-b]pyridazin-2-yl)ethyl)-4-ethyl-1,2,5-oxadiazole-3-carboxamide] | 100 to 1000
CCn1nccc1C(=O)N[C@H](c1cn2nc(CC3C(=O)NCC3C(F)(F)F)ccc2n1)C(C1CC1)C1CC1 (single isomer, unassigned) [Compound 45] | > 1000
O=C(N[C@H](c1cn2ncc(CC3C[C@@H](C(F)(F)F)NC3=O)cc2n1)C1CCC(F)(F)CC1)c1conc1C(F)(F)F (single isomer, unassigned) [Compound 215] | < 100
CCn1nccc1C(=O)N[C@H](c1cn2nc(CC3C[C@@H](C(F)(F)F)CNC3=O)c(C(=O)O)cc2n1)C1CCC(F)(F)CC1 (stereo partly drawn) [Compound 187, 2-((S)-(4,4-difluorocyclohexyl)(1-ethyl-1H-pyrazole-5-carboxamido)methyl)-6-(((5R)-2-oxo-5-(trifluoromethyl)piperidin-3-yl)methyl)imidazo[1,2-b]pyridazine-7-carboxylic acid] | 100 to 1000
CCn1nccc1C(=O)N[C@H](c1cn2nc(CC3C[C@H](C(F)(F)F)CNC3=O)ccc2n1)[C@H]1CC[C@H](C)CC1 (stereo partly drawn) [Compound 154, 1-Ethyl-N-((1S)-((1R.4S)-4-methylcyclohexyl)(6-(((5S)-2-oxo-5-(trifluoromethyl)piperidin-3-yl)methyl)imidazo[1,2-b]pyridazin-2-yl)methyl)-1H-pyrazole-5-carboxamide] | < 100
O=C1NC[C@H](C(F)(F)F)CC1Cc1ccc2nc([C@@H](NC(=O)C3CC34CC(F)(F)C4)C3CCC(F)(F)CC3)cn2n1 (single isomer, unassigned) [Compound 131] | 100 to 1000
CCn1nccc1C(=O)N[C@@H](c1cn2nc(CC3C[C@@H](C(F)(F)F)CNC3=O)ccc2n1)[C@@H]1C[C@H]2C[C@H]2C1 (stereo partly drawn) [Compound 171, N-((1R)-((1R,3S,5S)-bicyclo[3.1.0]hexan-3-yl)(6-(((5R)-2-oxo-5-(trifluoromethyl)piperidin-3-yl)methyl)imidazo[1,2-b]pyridazin-2-yl)methyl)-1-ethyl-1H-pyrazole-5-carboxamide] | 100 to 1000
CCn1nccc1C(=O)N[C@H](c1cn2nc(CC3C[C@@H](C(F)(F)F)CNC3=O)ccc2n1)C1CC2(CCC2)C1 (single isomer, unassigned) [Compound 189] | 100 to 1000
CCn1nccc1C(=O)N[C@H](c1cn2nc(CC3C[C@@H](C(F)(F)F)CNC3=O)c(N(C)C)cc2n1)C1CCC(F)(F)CC1 (single isomer, unassigned) [Compound 85] | 100 to 1000
CCn1nccc1C(=O)N[C@H](c1cn2ncc(CC3C[C@@H](C(F)(F)F)CNC3=O)cc2n1)[C@H]1CC[C@H](C)CC1 (single isomer, unassigned) [Compound 216] | 100 to 1000
CCn1nccc1C(=O)N[C@H](c1cn2nc(CC3C[C@@H](C(F)(F)F)CNC3=O)ccc2n1)C1CCC(F)(F)CC1 (stereo partly drawn) [Compound 193, N-((1S)-(4,4-difluorocyclohexyl)(6-(((5R)-2-oxo-5-(trifluoromethyl)piperidin-3-yl)methyl)imidazo[1,2-b]pyridazin-2-yl)methyl)-1-ethyl-1H-pyrazole-5-carboxamide] | > 1000
CCn1nccc1C(=O)N[C@H](c1cn2nc(CC3CC(F)(F)CNC3=O)ccc2n1)C1CCCCCC1 (single isomer, unassigned) [Compound 9, N-((1 S)-cycloheptyl(6-((5,5-difluoro-2-oxopiperidin-3-yl)methyl)imidazo[1,2-b]pyridazin-2-yl)methyl)-1-ethyl-1H-pyrazole-5-carboxamide] | < 100
O=C(N[C@H](c1cn2nc(CC3C[C@@H](C(F)(F)F)CNC3=O)ccc2n1)C1CCC(F)(F)CC1)c1conc1C1(F)CC1 (stereo partly drawn) [Compound 122, N-((1S)-(4,4-difluorocyclohexyl)(6-(((5R)-2-oxo-5-(trifluoromethyl)piperidin-3-yl)methyl)imidazo[1,2-b]pyridazin-2-yl)methyl)-3-(1-fluorocyclopropyl)isoxazole-4-carboxamide] | 100 to 1000
Cc1conc1C(=O)N[C@H](c1cn2nc(CC3C[C@@H](C(F)(F)F)CNC3=O)ccc2n1)C1CCC(F)(F)CC1 (stereo partly drawn) [Compound 103, N-((1S)-(4,4-difluorocyclohexyl)(6-(((5R)-2-oxo-5-(trifluoromethyl)piperidin-3-yl)methyl)imidazo[1,2-b]pyridazin-2-yl)methyl)-4-methylisoxazole-3-carboxamide] | 100 to 1000
O=C(N[C@H](c1cn2nc(CC3C[C@@H](C(F)(F)F)CNC3=O)ccc2n1)C1CCC(F)(F)CC1)c1nonc1C1CC1 (stereo partly drawn) [Compound 104, 4-cyclopropyl-N-((1S)-(4,4-difluorocyclohexyl)(6-(((5R)-2-oxo-5-(trifluoromethyl)piperidin-3-yl)methyl)imidazo[1,2-b]pyridazin-2-yl)methyl)-1,2,5-oxadiazole-3-carboxamide] | < 100
CCn1nccc1C(=O)N[C@H](c1cn2nc(CC3C(=O)NCC3C(F)(F)F)ccc2n1)C(C1CC1)C1CC1 (single isomer, unassigned) [Compound 46] | > 1000
O=C(N[C@H](c1cn2nc(CC3C[C@H](C(F)(F)F)CNC3=O)ccc2n1)[C@@H]1CCCC(F)(F)C1)c1conc1C1CC1 (stereo partly drawn) [Compound 158, 3-cyclopropyl-N-((1S)—((R)-3,3-difluorocyclohexyl)(6-(((5S)-2-oxo-5-(trifluoromethyl)piperidin-3-yl)methyl)imidazo[1,2-b]pyridazin-2-yl)methyl)isoxazole-4-carboxamide] | 100 to 1000
CCn1nccc1C(=O)N[C@H](c1cn2nc(CC3C[C@@H](C(F)(F)F)CNC3=O)ccc2n1)C1CC2(CC2)C1 (stereo partly drawn) [Compound 192, 1-ethyl-N—((1S)-(6-(((5R)-2-oxo-5-(trifluoromethyl)piperidin-3-yl)methyl)imidazo[1,2-b]pyridazin-2-yl)(spiro[2.3]hexan-5-yl)methyl)-1H-pyrazole-5-carboxamide] | > 1000
CCn1nccc1C(=O)N[C@H](c1cn2nc(CC3C[C@@H](C(F)(F)F)NC3=O)ccc2n1)C(C1CC1)C1CC1 (single isomer, unassigned) [Compound 8] | 100 to 1000
CCn1nccc1C(=O)N[C@H](c1cn2nc(CC3CC(F)(F)CNC3=O)c(NC(=O)OC)cc2n1)C1CCC(F)(F)CC1 (stereo partly drawn) [Compound 72, methyl (6-((5,5-difluoro-2-oxopiperidin-3-yl)methyl)-2-((S)-(4,4-difluorocyclohexyl)(1-ethyl-1H-pyrazole-5-carboxamido)methyl)imidazo[1,2-b]pyridazin-7-yl)carbamate] | 100 to 1000
CC[C@@H](c1ccc(F)cc1)[C@H](NC(=O)c1ccnn1CC)c1cn2ncc(CC3C[C@@H](C(F)(F)F)NC3=O)cc2n1 (single isomer, unassigned) [Compound 217] | > 1000
